Tests used:
[1] = biological target: T1, Poly [ADP-ribose] polymerase 1 (Homo sapiens, UniProt P09874); assay: Inhibition of PARP1 (unknown origin)
HCT-116 [2] = assay: Cytotoxicity against human HCT116 cells by SRB assay; type: functional, cell-based
[3] = biological target: T1, Poly [ADP-ribose] polymerase 1; settings: A549
Description: Inhibition of PARP1 in human A549 cells assessed as potentiation of TMZ-mediated cytotoxicity at 0.5 uM by SRB assay

HCT-116 [4] = assay: Potency index, ratio of IC50 for veliparib to IC50 for test compound against human HCT116 cells; type: functional

T1 sequence (P09874 whole entry): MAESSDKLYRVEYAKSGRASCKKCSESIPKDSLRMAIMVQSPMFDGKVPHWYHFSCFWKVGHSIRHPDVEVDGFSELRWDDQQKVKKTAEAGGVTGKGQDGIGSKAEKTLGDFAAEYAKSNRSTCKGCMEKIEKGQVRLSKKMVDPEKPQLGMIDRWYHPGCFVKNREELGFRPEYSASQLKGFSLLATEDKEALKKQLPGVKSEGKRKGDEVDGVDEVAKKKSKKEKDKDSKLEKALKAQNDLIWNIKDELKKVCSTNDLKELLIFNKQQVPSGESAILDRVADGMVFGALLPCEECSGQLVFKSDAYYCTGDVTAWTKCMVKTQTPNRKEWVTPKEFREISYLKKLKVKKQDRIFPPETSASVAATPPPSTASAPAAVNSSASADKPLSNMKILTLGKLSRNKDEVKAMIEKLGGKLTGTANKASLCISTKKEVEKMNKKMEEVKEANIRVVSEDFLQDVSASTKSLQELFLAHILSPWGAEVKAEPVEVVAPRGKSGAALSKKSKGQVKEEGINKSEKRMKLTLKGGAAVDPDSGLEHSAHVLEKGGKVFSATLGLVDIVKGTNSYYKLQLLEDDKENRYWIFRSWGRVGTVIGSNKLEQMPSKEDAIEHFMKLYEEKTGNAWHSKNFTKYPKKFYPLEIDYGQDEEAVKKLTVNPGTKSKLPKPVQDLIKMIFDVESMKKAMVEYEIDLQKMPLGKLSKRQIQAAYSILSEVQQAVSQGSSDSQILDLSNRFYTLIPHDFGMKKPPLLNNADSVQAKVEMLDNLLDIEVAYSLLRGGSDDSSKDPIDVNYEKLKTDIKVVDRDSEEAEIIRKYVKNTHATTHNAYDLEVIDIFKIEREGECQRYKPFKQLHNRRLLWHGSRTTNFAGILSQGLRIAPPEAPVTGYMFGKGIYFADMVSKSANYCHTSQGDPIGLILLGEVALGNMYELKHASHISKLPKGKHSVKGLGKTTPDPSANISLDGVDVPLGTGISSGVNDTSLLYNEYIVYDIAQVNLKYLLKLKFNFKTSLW

SMILES	IC50 [1] [nM]	IC50 (HCT-116 [2]; Homo sapiens, HCT-116) [nM]	PF50 [3]	IC50 (HCT-116 [2]; hct-116) [nM]	Ratio IC50 (HCT-116 [4])
CCCN1CCC(c2nc3c(C(N)=O)c(F)ccc3[nH]2)CC1	29.8	65500			
C[C@]1(c2nc3c(C(N)=O)c(F)ccc3[nH]2)CCCN1	5.7	> 100000			
NC(=O)c1c(F)ccc2[nH]c(C3CCCNC3)nc12 (configuration not stated)	25.8				
CN1CCC[C@@]1(C)c1nc2c(C(N)=O)c(F)ccc2[nH]1	21.7	> 100000			
NC(=O)c1c(F)ccc2[nH]c(C3CCNCC3)nc12	39.1	> 100000			
C[C@]1(c2nc3c(C(N)=O)cccc3[nH]2)CCCN1 [VELIPARIB]			2.2	64000	
NC(=O)c1c(F)ccc2[nH]c(-c3ccc(N4CCNCC4)cc3)nc12	43.7	7400			8.6
NC(=O)c1c(F)ccc2[nH]c(-c3ccc(N4CCOCC4)cc3)nc12	21.8	27000			2.3

Source: ChEMBL document CHEMBL4431318, “Design, synthesis and biological evaluation of novel 5-fluoro-1H-benzimidazole-4-carboxamide derivatives as potent PARP-1 inhibitors” (Bioorg Med Chem Lett, 2016)
